Results from the supplement of paper PMC10307832.

Experiments:
Assay in all cases: relative viability (nuclei count vs DMSO), 5 days (fraction); higher = more cells survive
[1] = test system: LC-2-ad
Procedure, shortened: (§1)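 Cells from lung cancer lines were seeded into 1536-well plates and, one day later, dosed by pin tool. Treatments were either a single drug or a fixed dose of an anchor drug with five library-drug doses (not always all listed) in √10 steps. After 5 days, nuclei were stained in a one-step fixation (final 0.05% Triton X-100, 1% formaldehyde, 1 ug/ml Hoechst) and counted on 4× images, and relative viability is the treated-to-vehicle nuclei ratio, as the median of duplicate plates.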

[2] = test system: UMC-11
Procedure, shortened: as §1

[3] = test system: CAL-12T
Procedure, shortened: as §1

[4] = test system: HCC-827
Procedure, shortened: as §1

[5] = test system: RERF-LC-KJ
Procedure, shortened: as §1

[6] = test system: LU99A
Procedure, shortened: as §1

[7] = test system: 201T
Procedure, shortened: as §1

[8] = test system: LCLC-103H
Procedure, shortened: as §1

[9] = test system: NCI-H322M
Procedure, shortened: as §1

[10] = test system: NCI-H2228
Procedure, shortened: as §1

[11] = test system: LK-2
Procedure, shortened: as §1

[12] = test system: NCI-H1792
Procedure, shortened: as §1

[13] = test system: NCI-H1437
Procedure, shortened: as §1

[14] = test system: BEN
Procedure, shortened: as §1

[15] = test system: NCI-H1651
Procedure, shortened: as §1

[16] = test system: NCI-H23
Procedure, shortened: as §1

[17] = test system: COR-L 105
Procedure, shortened: as §1

[18] = test system: NCI-H2405
Procedure, shortened: as §1

[19] = test system: HCC-15
Procedure, shortened: as §1

[20] = test system: HARA
Procedure, shortened: as §1

[21] = test system: NCI-H2085
Procedure, shortened: as §1

[22] = test system: H3255
Procedure, shortened: as §1

[23] = test system: LXF-289
Procedure, shortened: as §1

O=c1[nH]c2ccccc2n1C1CCN(CCCC(c2ccc(F)cc2)c2ccc(F)cc2)CC1 [Pimozide] + N=C(N)NC(=N)NCCc1ccccc1 [Phenformin] (partner 250 µM)
relative viability ([1]; first compound 0.08 µM): 0.573 | relative viability ([1]; first compound 0.253 µM): 0.558 | relative viability ([1]; first compound 0.8 µM): 0.571 | relative viability ([1]; first compound 2.53 µM): 0.623 | relative viability ([1]; first compound 8 µM): 0.605 | relative viability ([2]; first compound 0.08 µM): 0.331 | relative viability ([2]; first compound 0.253 µM): 0.333 | relative viability ([2]; first compound 0.8 µM): 0.344 | relative viability ([2]; first compound 2.53 µM): 0.313 | relative viability ([2]; first compound 8 µM): 0.245 | relative viability ([3]; first compound 0.08 µM): 0.581 | relative viability ([3]; first compound 0.253 µM): 0.506 | relative viability ([3]; first compound 0.8 µM): 0.623 | relative viability ([3]; first compound 2.53 µM): 0.496 | relative viability ([3]; first compound 8 µM): 0.575 | relative viability ([4]; first compound 0.253 µM): 0.403 | relative viability ([4]; first compound 0.8 µM): 0.464 | relative viability ([4]; first compound 2.53 µM): 0.443 | relative viability ([4]; first compound 8 µM): 0.42 | relative viability ([5]; first compound 0.08 µM): 0.416 | relative viability ([5]; first compound 0.253 µM): 0.467 | relative viability ([5]; first compound 0.8 µM): 0.409 | relative viability ([5]; first compound 2.53 µM): 0.264 | relative viability ([5]; first compound 8 µM): 0.401 | relative viability ([6]; first compound 0.08 µM): 0.803 | relative viability ([6]; first compound 0.253 µM): 0.837 | relative viability ([6]; first compound 0.8 µM): 0.573 | relative viability ([6]; first compound 2.53 µM): 0.765 | relative viability ([6]; first compound 8 µM): 0.897 | relative viability ([7]; first compound 0.08 µM): 0.467 | relative viability ([7]; first compound 0.253 µM): 0.404 | relative viability ([7]; first compound 0.8 µM): 0.444 | relative viability ([7]; first compound 2.53 µM): 0.379 | relative viability ([7]; first compound 8 µM): 0.44 | relative viability ([8]; first compound 0.08 µM): 0.327 | relative viability ([8]; first compound 0.253 µM): 0.324 | relative viability ([8]; first compound 0.8 µM): 0.317 | relative viability ([8]; first compound 2.53 µM): 0.332 | relative viability ([8]; first compound 8 µM): 0.364 | relative viability ([9]; first compound 0.253 µM): 0.738 | relative viability ([9]; first compound 0.8 µM): 0.766 | relative viability ([9]; first compound 2.53 µM): 0.816 | relative viability ([9]; first compound 8 µM): 0.749 | relative viability ([10]; first compound 0.08 µM): 0.371 | relative viability ([10]; first compound 0.253 µM): 0.293 | relative viability ([10]; first compound 0.8 µM): 0.338 | relative viability ([10]; first compound 2.53 µM): 0.225 | relative viability ([10]; first compound 8 µM): 0.192 | relative viability ([11]; first compound 0.08 µM): 0.501 | relative viability ([11]; first compound 0.253 µM): 0.367 | relative viability ([11]; first compound 2.53 µM): 0.237 | relative viability ([11]; first compound 8 µM): 0.345 | relative viability ([12]; first compound 0.08 µM): 0.356 | relative viability ([12]; first compound 0.253 µM): 0.314 | relative viability ([12]; first compound 2.53 µM): 0.233 | relative viability ([12]; first compound 8 µM): 0.278 | relative viability ([13]; first compound 0.08 µM): 0.395 | relative viability ([13]; first compound 0.253 µM): 0.318 | relative viability ([13]; first compound 0.8 µM): 0.327 | relative viability ([13]; first compound 2.53 µM): 0.275 | relative viability ([13]; first compound 8 µM): 0.25 | relative viability ([14]; first compound 0.08 µM): 0.278 | relative viability ([14]; first compound 0.253 µM): 0.274 | relative viability ([14]; first compound 0.8 µM): 0.258 | relative viability ([14]; first compound 2.53 µM): 0.289 | relative viability ([14]; first compound 8 µM): 0.3 | relative viability ([15]; first compound 0.08 µM): 0.346 | relative viability ([15]; first compound 0.253 µM): 0.305 | relative viability ([15]; first compound 0.8 µM): 0.316 | relative viability ([15]; first compound 2.53 µM): 0.338 | relative viability ([15]; first compound 8 µM): 0.283 | relative viability ([16]; first compound 0.08 µM): 0.782 | relative viability ([16]; first compound 0.253 µM): 0.741 | relative viability ([16]; first compound 0.8 µM): 0.673 | relative viability ([16]; first compound 2.53 µM): 0.692 | relative viability ([16]; first compound 8 µM): 0.79 | relative viability ([17]; first compound 0.253 µM): 0.519 | relative viability ([17]; first compound 0.8 µM): 0.512 | relative viability ([17]; first compound 2.53 µM): 0.471 | relative viability ([17]; first compound 8 µM): 0.473 | relative viability ([18]; first compound 0.08 µM): 0.412 | relative viability ([18]; first compound 0.253 µM): 0.389 | relative viability ([18]; first compound 0.8 µM): 0.478 | relative viability ([18]; first compound 2.53 µM): 0.381 | relative viability ([18]; first compound 8 µM): 0.418 | relative viability ([19]; first compound 0.08 µM): 0.511 | relative viability ([19]; first compound 0.253 µM): 0.431 | relative viability ([19]; first compound 0.8 µM): 0.432 | relative viability ([19]; first compound 2.53 µM): 0.433 | relative viability ([19]; first compound 8 µM): 0.448 | relative viability ([20]; first compound 0.253 µM): 0.503 | relative viability ([20]; first compound 0.8 µM): 0.405 | relative viability ([20]; first compound 2.53 µM): 0.423 | relative viability ([20]; first compound 8 µM): 0.431 | relative viability ([21]; first compound 0.08 µM): 0.681 | relative viability ([21]; first compound 0.253 µM): 0.732 | relative viability ([21]; first compound 0.8 µM): 0.58 | relative viability ([21]; first compound 2.53 µM): 0.705 | relative viability ([21]; first compound 8 µM): 0.637 | relative viability ([22]; first compound 0.253 µM): 0.37 | relative viability ([22]; first compound 0.8 µM): 0.387 | relative viability ([22]; first compound 2.53 µM): 0.372 | relative viability ([22]; first compound 8 µM): 0.4 | relative viability ([23]; first compound 0.08 µM): 0.501 | relative viability ([23]; first compound 0.253 µM): 0.502 | relative viability ([23]; first compound 0.8 µM): 0.475 | relative viability ([23]; first compound 2.53 µM): 0.505 | relative viability ([23]; first compound 8 µM): 0.487
